The target of this experiment is T1, BRAF V599E (Homo sapiens, UniProt P15056, V600E).
T1 construct: purchased Thermo Fisher Scientific (Life Technologies) SelectScreen
Briefly: SelectScreen Z'LYTE. In kind it is biochemical. The conditions noted are these: ATP 100 µM. An outline of the steps:
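Percent values come from Thermo SelectScreen profiling of NU5455, combining activity and binding assays. CSF1R was run in Z'LYTE format at Km app ATP, and CAMK1 in Adapta format with ATP listed at 10.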

This is an account of results in paper PMC6934184, “Selective DNA-PKcs inhibition extends the therapeutic index of localized radiotherapy and chemotherapy” (The Journal of Clinical Investigation, 2019).

T1 sequence (P15056 417-766 V600E limits assumed): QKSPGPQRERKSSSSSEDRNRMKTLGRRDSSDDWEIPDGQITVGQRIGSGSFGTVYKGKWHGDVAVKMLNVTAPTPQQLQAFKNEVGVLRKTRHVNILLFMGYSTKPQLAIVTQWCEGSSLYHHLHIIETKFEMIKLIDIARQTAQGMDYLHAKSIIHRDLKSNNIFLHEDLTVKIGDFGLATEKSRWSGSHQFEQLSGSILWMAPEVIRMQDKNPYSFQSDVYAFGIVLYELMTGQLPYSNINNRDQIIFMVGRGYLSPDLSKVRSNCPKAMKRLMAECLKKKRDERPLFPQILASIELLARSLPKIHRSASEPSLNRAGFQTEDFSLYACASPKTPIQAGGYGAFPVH

The inhibition is how much of the control response was suppressed. `CN(C(=O)CN1CCOCC1)c1ccc2sc3c(-c4cccc5c(=O)cc(N6CC7CCC(C6)O7)oc45)cccc3c2c1` [NU5455] yielded an inhibition at 1 µM of 18.3%.
